In paper PMC3769965 (Biochemistry, 2013):

Target: Eis_Msm (Mycolicibacterium smegmatis, UniProt A0QY29)
Experiment: DTNB initial rate
Assay type: biochemical
Details: AcCoA, 50 mM Tris-HCl pH 8.0

NC[C@@H]1O[C@H](O[C@H]2[C@@H](O)[C@H](O[C@@H]3[C@@H](O)[C@H](N)C[C@H](N)[C@H]3O[C@H]3O[C@H](CO)[C@@H](O)[C@H](O)[C@H]3N)O[C@@H]2CO)[C@H](N)[C@@H](O)[C@@H]1O [PAR, paromomycin]
DTNB initial rate (CoA release); LCMS of tri-acetylation: with Eis_Mtb, Eis_Msm, and all Eis_Mtb-mutants, PAR was always tri-acetylated
